Converted amounts (≈) assume the structure as drawn. “And” between values parts separate entries of the source, which are not always exact repeats. Equal entries are not always repeated. Where two headings read alike, the source gives them in different places. Marks after values point to notes of the source that are not given here.
Experiments:
[1] = In vitro simulated gastrointestinal digestion (SGD, INFOGEST 2.0): concentration and bioaccessibility by UHPLC-DAD-MSn; conditions: for Bioaccessibility (%), initial solution (IS): reference
Protocol: Preliminary solubility tests in different solvents, namely water, sodium phosphate buffer (26.8 mM, pH 6.1), ethanol, and also a mixture of ethanol with both water and sodium phosphate buffer, were carried out for each PC (data not shown), to prevent erroneous data arising from compounds precipitation. Ethanol percentages used in these preliminary solubility tests were 10, 15, and 20% (v/v).
Each PC solubilized in ethanol:water (15% v/v) was then submitted to an in vitro SGD (INFOGEST 2.0), according to a standardized protocol (Fig. 2). In order to determine whether the interaction between the compounds and enzymes led to an underestimation of their content, each PC solution was submitted to the same digestion procedure, replacing the enzyme solutions with water, which were designed as controls, henceforth this will be the term used. Each sample and control were submitted to three independent in vitro digestion simulations, and after each digestion phase, a sample/control was collected and further analyzed and quantified by UHPLC-DAD-MSn.
(§1) Mouth digestion of each PC solution (1 mL) was diluted in 0.8 mL of simulated salivary fluid (SSF) and α-amylase (75 U mL-1). Then, the mixture was incubated for 2 min at 37 °C under agitation (200 rpm). In order to start gastric digestion, pH was adjusted to 3.0 using 1 M aqueous HCl and then, a pepsin solution (2000 U mL-1) and simulated gastric fluid (SGF) were added. Subsequently, the mixture was incubated for 2h, at 37 °C and 130 rpm orbital agitation for the stomach digestion. Finally, the small intestine digestion simulation was performed after pH adjustment to 7.0 using 1 M aqueous […] and the addition of pancreatin (100 U mL-1), bile salts solution (10 mM) and simulated intestinal fluid (SIF), during 2 h, at 37 °C with 45 rpm orbital agitation. Natural small intestine absorption was also simulated, by placing the remaining sample in a dialysis membrane, and immersed in distilled water overnight at room temperature.
At each sampling point, an aliquot (0.5 mL) from each of the three replicates was collected. The enzymatic activity was stopped immediately by adding pure methanol to each aliquot (1:1, v/v) to promote enzyme precipitation and subsequently centrifuged at 10 000 g and 4 °C for 5 min. The supernatants were filtered with a 0.2 μm nylon filter. To determine the concentration of each sample or control, it was considered the following dilution factor – 1:2, 1:4 and 1:8 for oral, gastric and intestinal digestion phase, respectively.
The bioaccessibility percentage (B%) of each PC was calculated using equation (1):(1) B(%)=[DS]/[IS]×100 where IS is the initial concentration of PCs in ethanol:water (15% v/v) solutions, DS is the concentration of each collected sample or control (without enzymes).
(§2) The values of B% and IA% were the average of the three replicates performed, with the calculated standard deviation.
PCs were analyzed in a UHPLC system equipped with a variable loop Accela autosampler (set at 16 °C), an Accela 600 LC pump, and an Accela 80 Hz photo diode array detector (DAD) (Thermo Fisher Scientific, San Jose, CA, USA). Each sample was prepared in methanol:water (1:1, v/v) and filtered through a 0.2 μm nylon syringe filter. […] The mobile phase was composed of acetonitrile (A) and water:acetonitrile (99:1, v/v) (B), both with 0.1 % of formic acid. The gradient elution was performed as follows: 0–1min: 99% B; 1–17 min: 99-73% B, 17–20 min: 73-0% B, 20–25 min: 0–99% B, followed by re-equilibration of the column at 99% B for 4 min.

Caco-2 cell monolayers = conditions: cited from earlier work; for permeability class from Papp, apical-to-basolateral direction: Caco-2 monolayers
[2] = Simulation of intestinal absorption using a dialysis membrane (3 kDa) after in vitro SGD
Excerpt: HPLC-grade methanol, water, and acetonitrile were supplied by Fisher Scientific Chemicals. The enzymes α-amylase (A1031), pepsin from porcine stomach mucosa (P7012), pancreatin from porcine pancreas (P7545), and bile salts (B863) were purchased from Sigma-Aldrich (Taufkirchen, Germany). The rabbit gastric extract (RGE15) with gastric lipase activity was purchased from Lipolytech (Marseille, France). The ethanol was purchased from Merck (Algés, Portugal). A dialysis membrane with a molecular pore size of 3 kDa was purchased from Spectra/Pro (Spectrum Lab, Breda, Netherlands).
as §1
Furthermore, to determine the intestinal absorption, the aliquots collected inside the dialysis membrane were analyzed. The concentration of these samples (from inside of the membrane) corresponds to the amount of each PC that has not passed through to the outside of the membrane.
as §2

[3] = set-up: method as in earlier work; conditions: cited from earlier work
[4] = set-up: method as in PMID 19375897; conditions: cited from earlier work
[5] = set-up: method as in doi:10.1016/J.JFF.2016.08.003; conditions: cited from earlier work
[6] = controls (without enzymes), gastric phase
[7] = controls (without enzymes), initial solution
[8] = controls (without enzymes), intestinal phase
[9] = controls (without enzymes), oral phase
[10] = samples with enzymes, after gastric digestion pH 3.0
[11] = samples with enzymes, after intestinal digestion pH 7.0
[12] = samples with enzymes, gastric phase
[13] = samples with enzymes, intestinal phase
[14] = samples with enzymes, oral phase
[15] = samples, initial ethanol:water (15% v/v) solution
[16] = samples with enzymes, after oral digestion

SMILES | Bioaccessibility (%), oral phase (O) ([1]; 2 min) | Bioaccessibility (%), gastric phase (G) [1, 6] | Concentration, gastric phase (G) [1, 6] [ng/mL] | Concentration, initial solution (IS) [1, 7] [ng/mL] | Bioaccessibility (%), initial solution (IS) [1, 7] | Concentration, intestinal phase (I) [1, 8] [ng/mL] | Bioaccessibility (%), oral phase (O) [1, 9] | Concentration, oral phase (O) [1, 9] | Concentration, gastric phase (G) [1, 10] [ng/mL] | Concentration, intestinal phase (I) [1, 11] [ng/mL] | Bioaccessibility (%), gastric phase (G) [1, 12] | Bioaccessibility (%), intestinal phase (I) [1, 13] | Bioaccessibility (%), oral phase (O) [1, 14] | Concentration, initial solution (IS) [1, 15] [ng/mL] | Bioaccessibility (%), initial solution (IS) ([1]; samples, initial solution) | Concentration, dialysis phase (D) [2] | Bioaccessibility (%), intestinal phase (I) [1, 8] | Concentration, oral phase (O) [1, 16] [µg/mL] | permeability class from Papp, apical-to-basolateral direction (Caco-2 cell monolayers) | further results
C[C@@H]1O[C@@H](O[C@H]2[C@H](Oc3cc(O)c4c(c3)O[C@H](c3ccc(O)cc3)CC4=O)O[C@H](CO)[C@@H](O)[C@@H]2O)[C@H](O)[C@H](O)[C@H]1O [NARN, naringin] | 133.20 ± 16.03^ a % | 132.25 ± 6.73^ a % | 332530 ± 16910 | 251440 | 100 ^a % | 319150 ± 27850 | 128.18 ± 14.55^ a % | 322.30 ± 36.59 µg/mL | 365140 ± 71370 | 351210 ± 53270 | 145.2% and 145.22 ± 28.38^ a % | 139.68% and 139.68 ± 21.19^ a % | 133.2% | 251440 | 100 ^a % | 4460 ± 440 ng/mL | – | – | – | Concentration, oral phase (O) ([1]; 2 min): 334.93 ± 40.32 µg/mL; Papp value of apical to basolateral direction (Caco-2 cell monolayers; Caco-2, ref Tourniaiere et al. (2005)): low; Concentration, dialysis phase (D) ([2]; pig): 17290 ± 1750 ng/mL
O=c1cc(-c2ccc(O)cc2)oc2cc(O)cc(O)c12 [APG, apigenin] | 127.10 ± 1.17 ^a,b % | 15.20% and 15.20 ± 3.04 ^d % | 1420 ± 280 | 9330 | 100 ^c % | 14780 ± 470 | 134.98 ± 8.17 ^b % | 12.60 ± 0.76 µg/mL | 2580 ± 470 | 13740 ± 1220 | 27.60% and 27.60 ± 5.02^ c % | 147.20% and 147.20 ± 13.05 ^a % | 127.10% | 9330 | 100 ^b % | – | 158.32 ± 5.05 ^a % | 11.86 ± 0.11 | – | bioaccessible fraction after intestinal digestion relative to the gastric phase [3]: 2 fold
O=c1c(O)c(-c2ccc(O)c(O)c2)oc2cc(O)cc(O)c12 [QUE, quercetin] | 57.23 ± 6.98^ b % | – | – | 39890 | 100% | 7020 ± 700 | – | 13.64** μg mL^-1 | 2740 ± 630 | 7330 ± 100 | 6.87% and 6.87 ± 1.57^ c % | 18.36% and 18.36 ± 0.26^ c % | 57.23% | 39890 | 100^ a % | below the detection limit | 17.59 ± 1.70% | 22.83 ± 2.78 | low-permeable | Intestinal absorption (IA%) [2]: very high; solubility ([4]; pH 1.5): 5.5 µg/mL (≈ 18.2 µM); solubility ([4]; pH 7.5): 28.9 µg/mL (≈ 95.6 µM)
C[C@@H]1O[C@@H](OC[C@H]2O[C@@H](Oc3c(-c4ccc(O)c(O)c4)oc4cc(O)cc(O)c4c3=O)[C@H](O)[C@@H](O)[C@@H]2O)[C@H](O)[C@H](O)[C@H]1O [RUT, rutin] | – | 97.20 ± 2.29 ^a,b % | 317060 ± 7460 | 326190 | 100 ^a,b % | 285210 ± 19380 | 101.57 ± 2.61^ a % | 331.30 ± 8.52 µg/mL | 320450 ± 11330 | 265680 ± 13370 | 98.24% and 98.24 ± 3.47^ a % | 81.45% and 81.45 ± 4.10^ a % | 86.33% and 86.33 ± 20.75^ a % | 326190 | 100^ a % | – | 87.44 ± 5.94 ^b % | 281.60 ± 67.69 | low-permeable | formation of metabolites during in vitro SGD (UHPLC-DAD-MSn) ([1]; samples with enzymes): produced a metabolite after intestinal digestion simulation; percentage collected from inside of dialysis membrane ([5]; after in vitro gastrointestinal digestion): 1.65%; IA% ([5]; dialysis membrane): about 98%; Concentration, dialysis phase (D) ([2]; controls (without enzymes), aliquot from inside the dialysis membrane): 15120 ± 5540 ng/mL; Intestinal absorption (IA%) ([2]; controls (without enzymes), dialysis membrane): 94.75% and 94.75 ± 1.72%; Concentration, dialysis phase (D) ([2]; samples with enzymes, aliquot from inside the dialysis membrane): 22240 ± 1520 ng/mL; Intestinal absorption (IA%) ([2]; samples with enzymes, dialysis membrane): 91.63% and 91.63 ± 0.28%

From article PMC11016601, “Exploring the bioaccessibility and intestinal absorption of major classes of pure phenolic compounds using in vitro simulated gastrointestinal digestion” (Heliyon, 2024)
